Measured values as given in ChEMBL document CHEMBL5346885, “"Hit" to lead optimization and chemoinformatic studies for a new series of Autotaxin inhibitors” (Eur J Med Chem, 2023).
In brackets after ≈: the same amount, converted by molar mass. Activity calls are given as the source filed them. The rule behind the calls is not given here.

Key:
Autotaxin [1] = biological target: T1, Autotaxin (Homo sapiens, UniProt Q13822); experiment: Inhibition of human ATX using LPC as substrate preincubated with compound for 15 mins followed by substrate addition measured after 30 mins by Amplex Red reagent based fluorescence analysis
Autotaxin [2] = biological target: Autotaxin (Mus musculus, UniProt Q9R1E6); experiment: Inhibition of mouse ATX using LPC as substrate preincubated with compound for 15 mins followed by substrate addition measured after 30 mins by Amplex Red reagent based fluorescence analysis
[3] = Kinetic solubility of compound in simulated intestinal fluid at pH 6.6 by HPLC analysis
[4] = Kinetic solubility of compound in simulated gastric fluid at pH 1.7 by HPLC analysis
[5] = Kinetic solubility of compound in PBS at pH 7.4 by HPLC analysis
A549 [6] = experiment: Antitumor activity against human A549 cells assessed as redcution in cell viability measured after 24 hrs by MTT assay; type: functional, cell-based; conditions: dose 0.5-50 µM
Autotaxin [7] = biological target: T1, Autotaxin; experiment: Mixed type inhibition of human ATX assessed as inhibition constant using LPC as substrate by Lineweaver-Burk plot analysis
[8] = Cytotoxicity against wild type Fibroblast (unknown origin) assessed as redcution in cell growth measured after 48 hrs by crystal violet staining based analysis; conditions: wild type fibroblasts
A549 [9] = experiment: Antiproliferative activity against human A549 cells assessed as redcution in cell growth measured after 24 hrs by MTT assay; type: functional, cell-based; conditions: dose 0.5-50 µM
A549 [10] = experiment: Inhibition of cell migration in human A549 cells at 5 uM incubated for 24 hrs by crystal violet staining based transwell assay; type: functional
[11] = biological target: 3',5'-cyclic phosphodiesterase; experiment: Inhibition of PDE (unknown origin); type: protein assay, Homo sapiens
[12] = test system: CO[C@](C(=O)Nc1c2c(nn1-c1ccc(Br)cc1)CSC2)(c1ccccc1)C(F)(F)F; experiment: (§1) Mixed type inhibition of human ATX assessed as km using LPC as substrate by Lineweaver-Burk plot analysis
[13] = test system: O=C(Nc1c2c(nn1-c1ccc(Br)cc1)CSC2)c1cc(Cl)cc(Cl)c1; experiment: as §1

Compound: O=C(Cc1ccc2ccccc2c1)Nc1c2c(nn1-c1ccc(Br)cc1)CSC2
- IC50 (Autotaxin [1]): 21.2 µM

Compound: O=C(Cc1ccc(F)cc1)Nc1c2c(nn1-c1ccncc1)CSC2
- IC50 (Autotaxin [1]): > 50 µM

Compound: O=C(Nc1c2c(nn1-c1ccc(F)c(F)c1)CSC2)c1cccc2ccccc12
- IC50 (Autotaxin [2]): 63 µM

Compound: O=C1S/C(=C\c2ccc(OCc3ccc(B(O)O)cc3)cc2)C(=O)N1Cc1ccc(F)cc1
- solubility kinetic [3]: 1.05 µM (≈ 0.486 µg/mL)
- solubility kinetic [4]: 3.08 µM (≈ 1.43 µg/mL)

Compound: O=C(CN1CCN(C(=O)c2cc(Cl)cc(Cl)c2)CC1)Nc1ccn(-c2ccc(Br)cc2)n1
- IC50 (Autotaxin [1]): 25 µM

Compound: CC(C)(C)n1nc2c(c1NC(=O)c1cccc3ccccc13)CSC2
- IC50 (Autotaxin [2]): > 100 µM

Compound: CCc1nc2c(C)cc(N3CCN(CC(=O)N4CC(O)C4)CC3)cn2c1N(C)c1nc(-c2ccc(F)cc2)c(C#N)s1 [ZIRITAXESTAT]
- solubility kinetic [3]: 97 µM (≈ 57.1 µg/mL)
- solubility kinetic [5]: 96.9 µM (≈ 57 µg/mL)
- solubility kinetic [4]: 200 µM (≈ 118 µg/mL)

Compound: O=C(Nc1c2c(nn1-c1ccc(Br)cc1)CSC2)c1cc(F)cc(C(F)(F)F)c1
- IC50 (Autotaxin [1]): 11.2 µM

Compound: CO[C@](C(=O)Nc1c2c(nn1-c1ccc(Br)cc1)CCC2)(c1ccccc1)C(F)(F)F
- IC50 (Autotaxin [1]): 24.4 µM

Compound: O=C(c1cc(Cl)cc(Cl)c1)N1CCN(c2c3c(nn2-c2ccc(Br)cc2)CSC3)CC1
- IC50 (Autotaxin [1]): 70 µM

Compound: CO[C@](C(=O)Nc1c2c(nn1-c1ccc(Br)cc1)CSC2)(c1ccccc1)C(F)(F)F
- Activity (A549 [6]): Dose-Dependent Effect
- Ki (Autotaxin [7]): 6.83 µM
- CC50 at 48 h [8]: > 100 µM
- solubility kinetic [3]: 2.55 µM (≈ 1.31 µg/mL)
- Activity (A549 [9]): Dose-Dependent Effect
- solubility kinetic [5]: 1.26 µM (≈ 0.646 µg/mL)
- inhibition (A549 [10]): Active
- solubility kinetic [4]: 16.7 µM (≈ 8.58 µg/mL)
- IC50 (Autotaxin [1]): 2 µM

Compound: O=C(CCN1CCN(C(=O)OCc2cc(Cl)cc(Cl)c2)CC1)c1ccc2[nH]c(=O)oc2c1
- solubility kinetic [5]: 1.22 µM (≈ 0.584 µg/mL)
- solubility kinetic [4]: 15.4 µM (≈ 7.35 µg/mL)

Compound: O=C(O)c1ccc(-n2nc3c(c2NC(=O)c2cccc4ccccc24)CSC3)cc1
- IC50 (Autotaxin [2]): 48.3 µM

Compound: COC(=O)c1ccc(-n2nc3c(c2NC(=O)c2cccc4ccccc24)CSC3)cc1
- IC50 (Autotaxin [2]): > 100 µM

Compound: O=C(Nc1c2c(nn1-c1ccc(Br)cc1)CSC2)c1cccc2ccccc12
- IC50 (Autotaxin [2]): 5.3 µM
- IC50 (Autotaxin [1]): 4.6 µM

Compound: O=C(Nc1c2c(nn1-c1ccc(Br)cc1)CSC2)c1cc(Cl)cc(Cl)c1
- Activity (A549 [6]): Dose-Dependent Effect
- IC50 (Autotaxin [2]): 1.8 µM
- Ki (Autotaxin [7]): 6.26 µM
- CC50 at 48 h [8]: > 100 µM
- solubility kinetic [3]: 4.18 µM (≈ 1.96 µg/mL)
- Activity (A549 [9]): Dose-Dependent Effect
- inhibition (A549 [10]): Active
- solubility kinetic [4]: 5.02 µM (≈ 2.36 µg/mL)
- IC50 (Autotaxin [1]): 6.7 µM

Compound: O=C(Nc1c2c(nn1-c1ccc(Br)cc1)CS(=O)(=O)C2)c1cccc2ccccc12
- IC50 (Autotaxin [1]): > 100 µM

Compound: O=C(Nc1c2c(nn1-c1cc(F)cc(F)c1)CSC2)c1cccc2ccccc12
- IC50 (Autotaxin [2]): 53.7 µM

Compound: O=C(Nc1c2c(nn1-c1ccc(Br)cc1)CSC2)c1ccc2ccccc2c1
- IC50 (Autotaxin [1]): 12.1 µM

Compound: O=C(Nc1c2c(nn1-c1ccc(F)c(Cl)c1)CSC2)c1cccc2ccccc12
- IC50 (Autotaxin [2]): 40.8 µM

Compound: Cc1cc(C(=O)Nc2c3c(nn2-c2ccc(Br)cc2)CSC3)ccc1F
- IC50 (Autotaxin [1]): 41.8 µM

Compound: NS(=O)(=O)c1ccc(-n2nc3c(c2NC(=O)c2cccc4ccccc24)CSC3)cc1
- IC50 (Autotaxin [2]): 79.8 µM

Compound: Cc1ccc(-n2nc3c(c2NC(=O)c2cccc4ccccc24)CSC3)cc1Cl
- IC50 (Autotaxin [2]): 80 µM

Compound: O=C(Nc1c2c(nn1-c1ccc(Cl)c(Cl)c1)CSC2)c1cccc2ccccc12
- IC50 (Autotaxin [2]): 40 µM

Compound: O=C(Cc1ccc(F)cc1)Nc1c2c(nn1-c1ccc(Br)cc1)CSC2
- IC50 (Autotaxin [1]): 7.6 µM

Compound: O=C(Nc1c2c(nn1-c1ccc(OC(F)(F)F)cc1)CSC2)c1cccc2ccccc12
- IC50 (Autotaxin [2]): 22.1 µM

Compound: O=C(Nc1c2c(nn1-c1ccc(Br)cc1)COC2)c1cc(Cl)cc(Cl)c1
- IC50 (Autotaxin [1]): > 100 µM

Compound: COc1ccc(-n2nc3c(c2NC(=O)c2cccc4ccccc24)CSC3)cc1
- IC50 (Autotaxin [2]): > 100 µM
- IC50 (Autotaxin [1]): > 100 µM

Compound: O=C(Nc1c2c(nn1-c1cnccn1)CSC2)c1cccc2ccccc12
- IC50 (Autotaxin [2]): 1.8 µM
- IC50 [11]: 0.33 µM
- IC50 (Autotaxin [1]): 0.9 µM

Compound: O=C(Nc1c2c(nn1-c1ccncc1)CSC2)c1cccc2ccccc12
- IC50 (Autotaxin [2]): 2.7 µM
- IC50 (Autotaxin [1]): 5.3 µM

Compound: O=C(Nc1c2c(nn1-c1ccc(C(F)(F)F)cc1)CSC2)c1cccc2ccccc12
- IC50 (Autotaxin [2]): 46.6 µM

Compound: O=C(Nc1c2c(nn1-c1ccc(Br)cc1)CSC2)c1ccc(C(F)(F)F)cc1
- IC50 (Autotaxin [1]): 37.3 µM

Compound: O=C(Nc1c2c(nn1-c1ccccc1)CSC2)c1cccc2ccccc12
- IC50 (Autotaxin [2]): > 100 µM
- IC50 (Autotaxin [1]): > 100 µM

Compound: Autotaxin (Homo sapiens) (from UniProt Q13822)
- Km [12]: 5.61 µM
- Km [13]: 17.1 µM

Compound: O=C(Nc1c2c(nn1-c1ccc(Br)cc1)CCC2)c1cc(Cl)cc(Cl)c1
- IC50 (Autotaxin [1]): 6.6 µM

Compound: O=C(Nc1c2c(nn1-c1ccc([N+](=O)[O-])cc1)CSC2)c1cccc2ccccc12
- IC50 (Autotaxin [2]): 38.4 µM
- CC50 at 48 h [8]: > 100 µM
- IC50 [11]: 73 µM
- solubility kinetic [4]: 2.73 µM (≈ 1.14 µg/mL)
- IC50 (Autotaxin [1]): 16 µM
